Experimental findings from patent publication US10851102B2, “Imidazole and triazole containing bicyclic compounds as JAK inhibitors” (THERAVANCE BIOPHARMA R&D IP, LLC, priority 2019, dated 2020) are described below.

In one experiment the target is JAK3 (Homo sapiens (Human), UniProt P52333). Nature of the experiment: Biochemical JAK and Tyk2 kinase assays (LanthaScreen): JAK3. Conditions: for JAK 3 (pKi) / Ki: 1 h pre-incubation, ATP at Km, pIC50 converted to pKi by Cheng-Prusoff; for JAK3 (pKi)-JAK1 (pKi): difference of pKi values, selectivity JAK3 over JAK1; for Ki: read-out: JAK 3 (pKi) (converted). On the procedure:
(§1) Assay 1: Biochemical JAK and Tyk2 Kinase Assays
(§2) A panel of four LanthaScreen JAK biochemical assays (JAK1, 2, 3 and Tyk2) were carried in a common kinase reaction buffer (50 mM HEPES, pH 7.5, 0.01% Brij-35, 10 mM MgCl2, and 1 mM EGTA). Recombinant GST-tagged JAK enzymes and a GFP-tagged STAT1 peptide substrate were obtained from Life Technologies.
(§3) Serially or discretely diluted compounds were pre-incubated with each of the four JAK enzymes and the substrate in white 384-well microplates (Corning) at ambient temperature for 1 h. ATP was subsequently added to initiate the kinase reactions in 10 μL total volume, with 1% DMSO. […] Kinase reactions were allowed to proceed for 1 hour at ambient temperature before a 10 μL preparation of EDTA (10 mM final concentration) and Tb-anti-pSTAT1 (pTyr701) antibody (Life Technologies, 2 nM final concentration) in TR-FRET dilution buffer (Life Technologies) was added. The plates were allowed to incubate at ambient temperature for 1 h before being read on the EnVision reader (Perkin Elmer). Emission ratio signals (520 nm/495 nm) were recorded and utilized to calculate the percent inhibition values based on DMSO and background controls.
(§4) For dose-response analysis, percent inhibition data were plotted vs. compound concentrations, and IC50 values were determined from a 4-parameter robust fit model with the Prism software (GraphPad Software). Results were expressed as pIC50 (negative logarithm of IC50) and subsequently converted to pKi (negative logarithm of dissociation constant, Ki) using the Cheng-Prusoff equation.
For orientation: In TR-FRET formats the signal depends on donor and acceptor labels being close together.

The target of a further experiment is JAK1 (Homo sapiens (Human), UniProt P23458). Nature of the experiment: Biochemical JAK and Tyk2 kinase assays (LanthaScreen): JAK1. The note with it: 1 h pre-incubation, ATP at Km; pIC50 converted to pKi by Cheng-Prusoff. On the procedure:
as §1, §2, §3, §4

In experiment [1] the test system is IL-2 stimulated pSTAT5 in Tall-1 T cells (JAK3). The experiment in a line: Cellular JAK3 potency assay: inhibition of IL-2 stimulated pSTAT5 in Tall-1 T cells. The note with it: IL-2 300 ng/ml, pSTAT5 AlphaLisa, Tall-1 human T cell line; read-out: Tall-1 (pIC50) (converted). It is filed as cell-based. On the procedure:
Assay 2: Cellular JAK3 Potency Assay: Inhibition of IL-2 Stimulated pSTAT5 in Tall-1 T Cells
The potency of test compounds for inhibition of interleukin-2 (IL-2) stimulated STATS phosphorylation was measured in the Tall-1 human T cell line (DSMZ) using AlphaLisa. Because IL-2 signals through JAK3, this assay provides a measure of JAK3 cellular potency.
Phosphorylated STATS was measured via the AlphaLISA SureFire Ultra pSTAT5 (Tyr694/699) kit (PerkinElmer).
Human T cells from the Tall-1 cell line were cultured in a 37° C., 5% CO2 humidified incubator in RPMI (Life Technologies) supplemented with 15% Heat Inactivated Fetal Bovine Serum (FBS, Life Technologies), 2 mM Glutamax (Life Technologies), 25 mM HEPES (Life Technologies) and 1× Pen/Strep (Life Technologies). Compounds were serially diluted in DMSO and dispensed acoustically to empty wells. Assay media (phenol red-free DMEM (Life Technologies) supplemented with 10% FBS (ATCC)) was dispensed (4 μL/well) and plates shaken at 900 rpm for 10 mins. Cells were seeded at 45,000 cells/well in assay media (4 μL/well), and incubated at 37° C., 5% CO2 for 1 hour, followed by the addition of IL-2 (R&D Systems; final concentration 300 ng/ml) in pre-warmed assay media ([…]) for 30 minutes. After cytokine stimulation, cells were lysed with 6 ul of 3× AlphaLisa Lysis Buffer (PerkinElmer) containing 1× PhosStop and Complete tablets (Roche). The lysate was shaken at 900 rpm for 10 minutes at room temperature (RT). Phosphorylated STATS was measured via the pSTAT5 AlphaLisa kit (PerkinElmer). Freshly prepared acceptor bead mixture was dispensed onto lysate (5 μL) under green filtered <100 lux light. Plates were shaken at 900 rpm for 2 mins, briefly spun down, and incubated for 2 hrs at RT in the dark. Donor beads were dispensed (5 μL) under green filtered <100 lux light. Plates were shaken at 900 rpm for 2 minutes, briefly spun down, and incubated overnight at RT in the dark. Luminescence was measured with excitation at 689 nm and emission at 570 nm using an EnVision plate reader (PerkinElmer) under green filtered <100 lux light.
To determine the inhibitory potency of test compounds in response to IL-2, the average emission intensity of beads bound to pSTAT5 was measured in a human T cell line. IC50 values were determined from analysis of the inhibition curves of signal intensity versus compound concentration. Data are expressed as pIC50 (negative decadic logarithm IC50) values (mean±standard deviation).
For orientation: Alpha assays give light when donor and acceptor beads are brought close together.

JAK3, sequence (P52333 whole entry): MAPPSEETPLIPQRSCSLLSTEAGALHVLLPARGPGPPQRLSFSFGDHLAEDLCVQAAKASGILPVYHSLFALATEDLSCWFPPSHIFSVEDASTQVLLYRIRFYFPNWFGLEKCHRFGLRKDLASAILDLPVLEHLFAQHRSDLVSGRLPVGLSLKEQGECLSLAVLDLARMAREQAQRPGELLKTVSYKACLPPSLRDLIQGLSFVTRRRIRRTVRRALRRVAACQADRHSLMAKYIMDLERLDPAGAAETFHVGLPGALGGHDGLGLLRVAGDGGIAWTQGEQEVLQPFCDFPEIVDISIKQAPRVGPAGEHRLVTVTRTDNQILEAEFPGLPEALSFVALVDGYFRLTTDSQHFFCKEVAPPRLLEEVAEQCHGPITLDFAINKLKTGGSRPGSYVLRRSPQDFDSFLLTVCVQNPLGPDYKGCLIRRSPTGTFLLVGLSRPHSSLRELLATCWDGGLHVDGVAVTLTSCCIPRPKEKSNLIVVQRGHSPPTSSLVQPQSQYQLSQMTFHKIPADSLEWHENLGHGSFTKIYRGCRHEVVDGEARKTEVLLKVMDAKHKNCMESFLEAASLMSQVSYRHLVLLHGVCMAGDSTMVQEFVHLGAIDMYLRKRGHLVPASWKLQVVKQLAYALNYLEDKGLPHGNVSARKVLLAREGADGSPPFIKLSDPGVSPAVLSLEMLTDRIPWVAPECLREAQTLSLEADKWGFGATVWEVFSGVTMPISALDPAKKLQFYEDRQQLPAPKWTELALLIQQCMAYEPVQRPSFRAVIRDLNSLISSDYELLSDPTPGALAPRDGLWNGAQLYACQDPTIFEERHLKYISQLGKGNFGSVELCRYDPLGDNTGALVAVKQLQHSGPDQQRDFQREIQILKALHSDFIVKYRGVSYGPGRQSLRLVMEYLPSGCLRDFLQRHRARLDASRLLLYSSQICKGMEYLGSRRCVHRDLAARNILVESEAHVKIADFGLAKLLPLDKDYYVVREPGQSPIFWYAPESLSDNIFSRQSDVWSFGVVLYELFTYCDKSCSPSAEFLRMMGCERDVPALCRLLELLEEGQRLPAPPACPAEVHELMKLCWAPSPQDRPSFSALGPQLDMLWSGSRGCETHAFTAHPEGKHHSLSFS
JAK1, sequence (P23458 whole entry): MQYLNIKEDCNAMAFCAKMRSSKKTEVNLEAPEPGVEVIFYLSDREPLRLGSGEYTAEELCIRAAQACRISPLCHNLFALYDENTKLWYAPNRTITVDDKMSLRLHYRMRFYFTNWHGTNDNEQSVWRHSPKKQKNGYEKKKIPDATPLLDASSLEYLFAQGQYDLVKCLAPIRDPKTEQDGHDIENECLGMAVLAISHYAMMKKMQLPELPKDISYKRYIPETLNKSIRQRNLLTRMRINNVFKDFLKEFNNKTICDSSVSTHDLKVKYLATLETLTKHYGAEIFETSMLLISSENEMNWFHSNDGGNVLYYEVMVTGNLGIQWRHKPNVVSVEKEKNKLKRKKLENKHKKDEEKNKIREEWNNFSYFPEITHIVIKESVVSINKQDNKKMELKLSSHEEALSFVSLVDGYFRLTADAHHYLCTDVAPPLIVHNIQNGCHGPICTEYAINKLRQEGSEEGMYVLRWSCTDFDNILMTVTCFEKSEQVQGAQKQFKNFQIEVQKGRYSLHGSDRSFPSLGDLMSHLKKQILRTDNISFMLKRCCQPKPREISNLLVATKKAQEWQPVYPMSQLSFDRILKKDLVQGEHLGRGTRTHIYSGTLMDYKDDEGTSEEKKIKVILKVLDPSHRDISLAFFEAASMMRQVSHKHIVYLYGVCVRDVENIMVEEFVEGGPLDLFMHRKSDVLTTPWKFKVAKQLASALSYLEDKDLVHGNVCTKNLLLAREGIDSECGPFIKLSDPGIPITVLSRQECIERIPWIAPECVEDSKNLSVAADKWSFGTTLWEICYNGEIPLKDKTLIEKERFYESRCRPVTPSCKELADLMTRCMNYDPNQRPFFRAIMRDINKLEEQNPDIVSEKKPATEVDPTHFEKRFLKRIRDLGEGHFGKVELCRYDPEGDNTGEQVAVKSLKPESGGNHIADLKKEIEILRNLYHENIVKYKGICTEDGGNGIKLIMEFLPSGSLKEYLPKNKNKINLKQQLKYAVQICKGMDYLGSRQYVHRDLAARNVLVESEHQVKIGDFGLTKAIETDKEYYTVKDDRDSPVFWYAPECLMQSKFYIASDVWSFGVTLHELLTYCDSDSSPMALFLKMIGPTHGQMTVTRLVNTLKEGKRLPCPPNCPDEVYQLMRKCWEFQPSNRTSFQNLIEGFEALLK

In the case of `C=CC(=O)N1CC(COc2cc(-c3ccc(O)cc3)cn3cnnc23)C1` [Example 5, 1-(3-(((6-(4-hydroxyphenyl)-[1,2,4]triazolo[4,3-a]pyridin-8-yl)oxy)methyl)azetidin-1-yl)prop-2-en-1-one], on JAK3, the “JAK 3 (pKi)” value is given as “A (A represents a pKi value≥10 (Ki≤0.1 nM))” and the “JAK3 (pKi)-JAK1 (pKi)” value is recorded as “A (A represents a value of 3 or above)”. In addition, the “JAK 1 (pKi)” value on JAK1 is reported as “E (E represents a pKi value of 7 or below (Ki of 100 nM or above))”. Besides, in experiment [1], the IC50 was 0.2 to 1 µM.
For the compound `C=CC(=O)N1[C@@H]2CC[C@H]1C[C@H](Oc1cc(-c3ccc(O)cc3)cn3cncc13)C2` [Example 10, 1-((1R,3S,5S)-3-((6-(4-hydroxyphenyl)imidazo[1,5-a]pyridin-8-yl)oxy)-8-azabicyclo[3.2.1]octan-8-yl)prop-2-en-1-one], the IC50 in experiment [1] is 0.0316 to 0.2 µM.
Consider `C=CC(=O)N1CCC(N(C)c2cc(-c3ccc(O)cc3)cn3cncc23)CC1` [Example 17], for which, at JAK3, the “JAK 3 (pKi)” value was “C (C represents a pKi value between 8 and 9 (Ki between 10 nM and 1 nM))”; the “JAK3 (pKi)-JAK1 (pKi)” value is listed as “B (B represents a value of 2.3 to 3)”. On JAK1, the “JAK 1 (pKi)” value is listed as “E (E represents a pKi value of 7 or below (Ki of 100 nM or above))”.
`CCc1cc(O)c(F)cc1-c1cc(O[C@H]2CCCN(C(=O)/C=C/CN(C)C)C2)c2cncn2c1` [Example 18]: at JAK3, the Ki is 0.0001 to 0.001 µM and the “JAK3 (pKi)-JAK1 (pKi)” value is given as “B (B represents a value of 2.3 to 3)”. For the same compound, the “JAK 1 (pKi)” value at JAK1 was “E (E represents a pKi value of 7 or below (Ki of 100 nM or above))”.
For the compound `CN(C)C/C=C/C(=O)N1CC(COc2cc(-c3ccc(O)cc3)cn3cncc23)C1` [Example 19], at JAK3, the Ki was 0.0001 to 0.001 µM and the “JAK3 (pKi)-JAK1 (pKi)” value is “A (A represents a value of 3 or above)”. Also, the “JAK 1 (pKi)” value at JAK1 is reported as “E (E represents a pKi value of 7 or below (Ki of 100 nM or above))”. For the same compound, in experiment [1], the IC50 was 0.2 to 1 µM.
The matching figures for `CN(C)C/C=C/C(=O)N1CC(COc2cc(-c3ccc(O)c(F)c3)cn3cncc23)C1` [Example 22]: 0.0001 to 0.001 µM, “A (A represents a value of 3 or above)”, “E (E represents a pKi value of 7 or below (Ki of 100 nM or above))” and 0.2 to 1 µM.
The corresponding values for `CCc1cc(O)ccc1-c1cc(OCC2CN(C(=O)/C=C/CN(C)C)C2)c2cncn2c1` [Example 25] are 0.0001 to 0.001 µM, “A (A represents a value of 3 or above)”, “E (E represents a pKi value of 7 or below (Ki of 100 nM or above))” and 0.2 to 1 µM.
As for `C=CC(=O)N1CC(CSc2cc(-c3ccc(O)cc3)cn3cncc23)C1` [Example 29], on JAK3, the Ki is 0.0001 to 0.001 µM and the “JAK3 (pKi)-JAK1 (pKi)” value is on record as “A (A represents a value of 3 or above)”. Moreover, the “JAK 1 (pKi)” value at JAK1 is on record as “E (E represents a pKi value of 7 or below (Ki of 100 nM or above))”. The IC50 in experiment [1] was 0.2 to 1 µM.
The corresponding values for `C=CC(=O)N1CC(COc2cc(-c3cc(F)c(O)c(F)c3)cn3cncc23)C1` [Example 32] are 0.0001 to 0.001 µM, “A (A represents a value of 3 or above)”, “E (E represents a pKi value of 7 or below (Ki of 100 nM or above))” and 0.2 to 1 µM.
In the case of `C=CC(=O)N1CC(COc2cc(-c3cc(C)c(O)c(C)c3)cn3cncc23)C1` [Example 35], at JAK3, the Ki is 0.0001 to 0.001 µM and the “JAK3 (pKi)-JAK1 (pKi)” value is “A (A represents a value of 3 or above)”. In addition, the “JAK 1 (pKi)” value at JAK1 is “E (E represents a pKi value of 7 or below (Ki of 100 nM or above))”. In experiment [1], the IC50 was 0.2 to 1 µM.
In the case of `C=CC(=O)N1[C@@H]2CC[C@H]1C[C@@H](Oc1cc(-c3ccc(O)cc3)cn3cncc13)C2` [Example 36], at JAK3, the “JAK 3 (pKi)” value is recorded as “A (A represents a pKi value≥10 (Ki≤0.1 nM))” and the “JAK3 (pKi)-JAK1 (pKi)” value was “A (A represents a value of 3 or above)”. Also, at JAK1, the “JAK 1 (pKi)” value is recorded as “E (E represents a pKi value of 7 or below (Ki of 100 nM or above))”. The IC50 in experiment [1] was 0.0316 to 0.2 µM.
Regarding `C=CC(=O)N1CC[C@H](Oc2cc(-c3ccc(O)cc3)cn3cncc23)C[C@@H]1C` [Example 38], at JAK3, the Ki is 0.0001 to 0.001 µM and the “JAK3 (pKi)-JAK1 (pKi)” value is listed as “A (A represents a value of 3 or above)”. At JAK1, the “JAK 1 (pKi)” value is “E (E represents a pKi value of 7 or below (Ki of 100 nM or above))”. In addition, the IC50 in experiment [1] was 0.0316 to 0.2 µM.
The corresponding values for `C=CC(=O)N1[C@H](C)C[C@H](Oc2cc(-c3ccc(O)cc3)cn3cncc23)C[C@@H]1C` [Example 40] are 0.001 to 0.01 µM, “B (B represents a value of 2.3 to 3)”, “E (E represents a pKi value of 7 or below (Ki of 100 nM or above))” and 0.2 to 1 µM.
The corresponding values for `C=CC(=O)N1CC(COc2cc(-c3ccc(O)cc3C(F)(F)F)cn3cncc23)C1` [Example 42] are 0.0001 to 0.001 µM, “A (A represents a value of 3 or above)”, “E (E represents a pKi value of 7 or below (Ki of 100 nM or above))” and 0.2 to 1 µM.
The matching figures for `C=CC(=O)N1CC(COc2cc(-c3cc(C)c(O)cc3C)cn3cncc23)C1` [Example 43]: 0.0001 to 0.001 µM, “A (A represents a value of 3 or above)”, “E (E represents a pKi value of 7 or below (Ki of 100 nM or above))” and 0.0316 to 0.2 µM.
For `C=CC(=O)N1CC(COc2cc(-c3ccc(O)cc3OC)cn3cncc23)C1` [Example 45], on JAK3, the Ki was 0.0001 to 0.001 µM and the “JAK3 (pKi)-JAK1 (pKi)” value is listed as “A (A represents a value of 3 or above)”. In addition, the “JAK 1 (pKi)” value on JAK1 is “E (E represents a pKi value of 7 or below (Ki of 100 nM or above))”. Besides, the IC50 in experiment [1] was 0.2 to 1 µM.
In the case of `C=CC(=O)N1CC2(CCC2Oc2cc(-c3cc(F)c(O)cc3CC)cn3cncc23)C1` (stereo not drawn) [Example 46], on JAK3, the Ki was 0.0001 to 0.001 µM and the “JAK3 (pKi)-JAK1 (pKi)” value is recorded as “B (B represents a value of 2.3 to 3)”. In addition, the “JAK 1 (pKi)” value at JAK1 is on record as “E (E represents a pKi value of 7 or below (Ki of 100 nM or above))”. In experiment [1], the IC50 is 0.0316 to 0.2 µM.
Regarding `C=CC(=O)N1[C@@H]2CC[C@H]1C[C@H](Nc1cc(-c3ccc(O)cc3)cn3cncc13)C2` [Example 50], on JAK3, the Ki is 0.001 to 0.01 µM and the “JAK3 (pKi)-JAK1 (pKi)” value is listed as “B (B represents a value of 2.3 to 3)”. For the same compound, the “JAK 1 (pKi)” value at JAK1 is listed as “E (E represents a pKi value of 7 or below (Ki of 100 nM or above))”.
Take `C=CC(=O)N1CCC[C@H](Nc2cc(-c3ccc(O)cc3)cn3cncc23)C1` [Example 51]: at JAK3, the Ki is 0.001 to 0.01 µM and the “JAK3 (pKi)-JAK1 (pKi)” value is on record as “B (B represents a value of 2.3 to 3)”. Moreover, the “JAK 1 (pKi)” value at JAK1 was “E (E represents a pKi value of 7 or below (Ki of 100 nM or above))”.
The corresponding values for `C=CC(=O)N1CC(CNc2cc(-c3ccc(O)cc3)cn3cncc23)C1` [Example 52] are 0.001 to 0.01 µM, “B (B represents a value of 2.3 to 3)” and “E (E represents a pKi value of 7 or below (Ki of 100 nM or above))”.
